# From patent publication US20210181179A1, “DIAGNOSIS AND TREATMENT OF IMMUNOTHERAPY-INDUCED NEUROTOXICITY” (MEMORIAL SLOAN KETTERING CANCER CENTER, priority 2018, published 2021)
# Key:
# KARPAS231 (B-ALL) = experiment: Net production of TRP metabolites in media samples, KARPAS231; assay type: cell-based
# ALL3.1 (B-ALL) = experiment: Net production of TRP metabolites in media samples, ALL3.1; assay type: cell-based
# RS4; 11 (B-ALL) = experiment: Net production of TRP metabolites in media samples, RS4; 11; assay type: cell-based
# HCN2 (cortical neuron) = experiment: Net production of TRP metabolites in media samples, HCN2; assay type: cell-based
# CCF-STTG1 (astrocytoma) = experiment: Net production of TRP metabolites in media samples, CCF-STTG1; assay type: cell-based, human
# Excerpt: (§1) Under physiological conditions in the brain, kynurenine metabolism is driven by microglial cells and astrocytes with preferential production of QUIN and KA respectively. […] This may have been due to T cells producing cytokines and/or intermediate metabolites that are further metabolized to QUIN by the cells. In order to identify specific factors that may lead to tryptophan-kynurenine pathway up-regulation for QUIN production, we tested a panel of cytokine and chemokines implicated in NTX and CRS. […] We initially evaluated the panel of the select factors individually (FIGS. 16 A-B). We selected several cytokines based on their effect on rate-limiting enzymes for QUIN production. These included IFNγ, TNF, […], CXCL10 and […]. These enzymes were selected based on their regulation of key enzymes, KMO and KYNU, which may lead to supraphysiological accumulation of QUIN. These factors were further evaluated, individually or in combination, on astrocytoma, microglial, and primary monocyte-derived macrophages for mRNA levels of kynurenine pathway enzymes and kynurenine metabolites production (FIG. 17).
# SUP-B15 (B-ALL) = experiment: Net production of TRP metabolites in media samples, SUP-B15; assay type: cell-based
# BV173 (B-ALL) = experiment: Net production of TRP metabolites in media samples, BV173; assay type: cell-based
# THP-1 (monocyte) = experiment: Net production of TRP metabolites in media samples, THP-1; assay type: cell-based
# HMC3 (microglia) = experiment: Net production of TRP metabolites in media samples, HMC3; assay type: cell-based, human
# Excerpt: as §1
# DOAY (medulloblastoma) = experiment: Net production of TRP metabolites in media samples, DOAY; assay type: cell-based
# CCRF-SB (B-ALL) = experiment: Net production of TRP metabolites in media samples, CCRF-SB; assay type: cell-based
substance,measurement,setting,value
IFNγ: cytokine,Net production of TRP metabolites in media samples: 3-HK,KARPAS231 (B-ALL),90.74 ± 9.3
same,Net production of TRP metabolites in media samples: HAA,KARPAS231 (B-ALL),244.46 ± 24.4
same,Net production of TRP metabolites in media samples: KA,KARPAS231 (B-ALL),−9.22 ± 3.8
same,Net production of TRP metabolites in media samples: KYN,KARPAS231 (B-ALL),1247.28 ± 62.2
same,Net production of TRP metabolites in media samples: QUIN,KARPAS231 (B-ALL),−26.02 ± 27.3
same,Net production of TRP metabolites in media samples: 3-HK,ALL3.1 (B-ALL),8.76 ± 7.8
same,Net production of TRP metabolites in media samples: KA,ALL3.1 (B-ALL),−3.32 ± 3.4
same,Net production of TRP metabolites in media samples: KYN,ALL3.1 (B-ALL),55.94 ± 132
same,Net production of TRP metabolites in media samples: QUIN,ALL3.1 (B-ALL),40.94 ± 140.3
same,Net production of TRP metabolites in media samples: 3-HK,RS4; 11 (B-ALL),0.12 ± 1.4
same,Net production of TRP metabolites in media samples: KA,RS4; 11 (B-ALL),−2.8 ± 7.2
same,Net production of TRP metabolites in media samples: KYN,RS4; 11 (B-ALL),26.58 ± 19.7
same,Net production of TRP metabolites in media samples: QUIN,RS4; 11 (B-ALL),−4.26 ± 37.4
same,Net production of TRP metabolites in media samples: 3-HK,HCN2 (cortical neuron),−4.84 ± 8.3
same,Net production of TRP metabolites in media samples: HAA,HCN2 (cortical neuron),6.34 ± 1.1
same,Net production of TRP metabolites in media samples: KA,HCN2 (cortical neuron),6.48 ± 4.8
same,Net production of TRP metabolites in media samples: KYN,HCN2 (cortical neuron),1597.26 ± 77
same,Net production of TRP metabolites in media samples: QUIN,HCN2 (cortical neuron),25.26 ± 27.11
same,Net production of TRP metabolites in media samples: 3-HK,CCF-STTG1 (astrocytoma),−12.24 ± 1.2
same,Net production of TRP metabolites in media samples: HAA,CCF-STTG1 (astrocytoma),8.88 ± 0.2
same,Net production of TRP metabolites in media samples: KA,CCF-STTG1 (astrocytoma),8.2 ± 2.9
same,Net production of TRP metabolites in media samples: KYN,CCF-STTG1 (astrocytoma),12049.08 ± 526
same,Net production of TRP metabolites in media samples: QUIN,CCF-STTG1 (astrocytoma),1.34 ± 16
same,Net production of TRP metabolites in media samples: 3-HK,SUP-B15 (B-ALL),18.5 ± 14.8
same,Net production of TRP metabolites in media samples: HAA,SUP-B15 (B-ALL),6.92 ± 0.9
same,Net production of TRP metabolites in media samples: KA,SUP-B15 (B-ALL),−7.42 ± 3.2
same,Net production of TRP metabolites in media samples: KYN,SUP-B15 (B-ALL),299.52 ± 209^
same,Net production of TRP metabolites in media samples: QUIN,SUP-B15 (B-ALL),−70 ± 31
same,Net production of TRP metabolites in media samples: 3-HK,BV173 (B-ALL),1.06 ± 2.6
same,Net production of TRP metabolites in media samples: KA,BV173 (B-ALL),−4.58 ± 5^
same,Net production of TRP metabolites in media samples: KYN,BV173 (B-ALL),46.72 ± 51.1
same,Net production of TRP metabolites in media samples: QUIN,BV173 (B-ALL),6.54 ± 42.2
same,Net production of TRP metabolites in media samples: 3-HK,THP-1 (monocyte),1.78 ± 1.9
same,Net production of TRP metabolites in media samples: KA,THP-1 (monocyte),−7.14 ± 5.2
same,Net production of TRP metabolites in media samples: KYN,THP-1 (monocyte),2593.4 ± 153.7
same,Net production of TRP metabolites in media samples: QUIN,THP-1 (monocyte),−26.4 ± 68^
same,Net production of TRP metabolites in media samples: 3-HK,HMC3 (microglia),20.8 ± 20.5
same,Net production of TRP metabolites in media samples: HAA,HMC3 (microglia),0.76 ± 3.3
same,Net production of TRP metabolites in media samples: KA,HMC3 (microglia),48.46 ± 25.8
same,Net production of TRP metabolites in media samples: KYN,HMC3 (microglia),45327.9 ± 11654
same,Net production of TRP metabolites in media samples: QUIN,HMC3 (microglia),55.88 ± 34^
same,Net production of TRP metabolites in media samples: 3-HK,DOAY (medulloblastoma),−13.38 ± 1.5
same,Net production of TRP metabolites in media samples: HAA,DOAY (medulloblastoma),10.66 ± 0.9
same,Net production of TRP metabolites in media samples: KA,DOAY (medulloblastoma),11.08 ± 0.9
same,Net production of TRP metabolites in media samples: KYN,DOAY (medulloblastoma),6757.9 ± 129.3
same,Net production of TRP metabolites in media samples: QUIN,DOAY (medulloblastoma),34.8 ± 7^
same,Net production of TRP metabolites in media samples: 3-HK,CCRF-SB (B-ALL),1.9 ± 7.3
same,Net production of TRP metabolites in media samples: HAA,CCRF-SB (B-ALL),5.9 ± 0.5
same,Net production of TRP metabolites in media samples: KA,CCRF-SB (B-ALL),−8.3 ± 5.5
same,Net production of TRP metabolites in media samples: KYN,CCRF-SB (B-ALL),410.1 ± 79.1
same,Net production of TRP metabolites in media samples: QUIN,CCRF-SB (B-ALL),−53.44 ± 37.8
TNFα,Net production of TRP metabolites in media samples: 3-HK,KARPAS231 (B-ALL),4.94 ± 3.4
same,Net production of TRP metabolites in media samples: HAA,KARPAS231 (B-ALL),14.18 ± 4.6
same,Net production of TRP metabolites in media samples: KA,KARPAS231 (B-ALL),−7.72 ± 36.9
same,Net production of TRP metabolites in media samples: KYN,KARPAS231 (B-ALL),−72.84 ± 36.9
same,Net production of TRP metabolites in media samples: QUIN,KARPAS231 (B-ALL),−44.96 ± 36.3
same,Net production of TRP metabolites in media samples: 3-HK,ALL3.1 (B-ALL),6.26 ± 7.3
same,Net production of TRP metabolites in media samples: KA,ALL3.1 (B-ALL),−4.56 ± 5.5
same,Net production of TRP metabolites in media samples: KYN,ALL3.1 (B-ALL),76.98 ± 139.6
same,Net production of TRP metabolites in media samples: QUIN,ALL3.1 (B-ALL),−13.1 ± 32.3
same,Net production of TRP metabolites in media samples: 3-HK,RS4; 11 (B-ALL),−0.34 ± 1.9
same,Net production of TRP metabolites in media samples: KA,RS4; 11 (B-ALL),−5.46 ± 5.7
same,Net production of TRP metabolites in media samples: KYN,RS4; 11 (B-ALL),4.38 ± 25.2
same,Net production of TRP metabolites in media samples: QUIN,RS4; 11 (B-ALL),42.26 ± 39^
same,Net production of TRP metabolites in media samples: 3-HK,HCN2 (cortical neuron),4.82 ± 1.9
same,Net production of TRP metabolites in media samples: HAA,HCN2 (cortical neuron),4.52 ± 0.3
same,Net production of TRP metabolites in media samples: KA,HCN2 (cortical neuron),1.56 ± 1.5
same,Net production of TRP metabolites in media samples: KYN,HCN2 (cortical neuron),5.4 ± 10
same,Net production of TRP metabolites in media samples: QUIN,HCN2 (cortical neuron),8.44 ± 12.2
same,Net production of TRP metabolites in media samples: 3-HK,CCF-STTG1 (astrocytoma),−9.8 ± 2.6
same,Net production of TRP metabolites in media samples: HAA,CCF-STTG1 (astrocytoma),10.74 ± 0.9
same,Net production of TRP metabolites in media samples: KA,CCF-STTG1 (astrocytoma),1.36 ± 0.5
same,Net production of TRP metabolites in media samples: KYN,CCF-STTG1 (astrocytoma),2853.38 ± 129.6
same,Net production of TRP metabolites in media samples: QUIN,CCF-STTG1 (astrocytoma),12.92 ± 4
same,Net production of TRP metabolites in media samples: 3-HK,SUP-B15 (B-ALL),17.56 ± 14^
same,Net production of TRP metabolites in media samples: HAA,SUP-B15 (B-ALL),6.58 ± 0.8
same,Net production of TRP metabolites in media samples: KA,SUP-B15 (B-ALL),−9.16 ± 3^
same,Net production of TRP metabolites in media samples: KYN,SUP-B15 (B-ALL),303.8 ± 191
same,Net production of TRP metabolites in media samples: QUIN,SUP-B15 (B-ALL),−67.3 ± 23^
same,Net production of TRP metabolites in media samples: 3-HK,BV173 (B-ALL),10.36 ± 9.9
same,Net production of TRP metabolites in media samples: KA,BV173 (B-ALL),−3.16 ± 2.1
same,Net production of TRP metabolites in media samples: KYN,BV173 (B-ALL),216.84 ± 141.1 ™
same,Net production of TRP metabolites in media samples: QUIN,BV173 (B-ALL),−8.44 ± 48.4
same,Net production of TRP metabolites in media samples: 3-HK,THP-1 (monocyte),0.82 ± 1.5
same,Net production of TRP metabolites in media samples: KA,THP-1 (monocyte),−9.9 ± 5
same,Net production of TRP metabolites in media samples: KYN,THP-1 (monocyte),298.62 ± 61.8
same,Net production of TRP metabolites in media samples: QUIN,THP-1 (monocyte),16.24 ± 51.4
same,Net production of TRP metabolites in media samples: 3-HK,HMC3 (microglia),7.44 ± 18
same,Net production of TRP metabolites in media samples: HAA,HMC3 (microglia),−2.14 ± 0.45
same,Net production of TRP metabolites in media samples: KA,HMC3 (microglia),3.38 ± 2.9
same,Net production of TRP metabolites in media samples: KYN,HMC3 (microglia),506.02 ± 251^
same,Net production of TRP metabolites in media samples: QUIN,HMC3 (microglia),52.84 ± 27.6
same,Net production of TRP metabolites in media samples: 3-HK,DOAY (medulloblastoma),−8.84 ± 1.2
same,Net production of TRP metabolites in media samples: HAA,DOAY (medulloblastoma),10.14 ± 0.8
same,Net production of TRP metabolites in media samples: KA,DOAY (medulloblastoma),4.52 ± 0.7
same,Net production of TRP metabolites in media samples: KYN,DOAY (medulloblastoma),35.94 ± 12.9
same,Net production of TRP metabolites in media samples: QUIN,DOAY (medulloblastoma),19.86 ± 7.1
same,Net production of TRP metabolites in media samples: 3-HK,CCRF-SB (B-ALL),28.96 ± 22.5
same,Net production of TRP metabolites in media samples: HAA,CCRF-SB (B-ALL),11.34 ± 3.9
same,Net production of TRP metabolites in media samples: KA,CCRF-SB (B-ALL),−9.3 ± 4.7
same,Net production of TRP metabolites in media samples: KYN,CCRF-SB (B-ALL),361.62 ± 256.4
same,Net production of TRP metabolites in media samples: QUIN,CCRF-SB (B-ALL),−70.3 ± 30.4
